Test results taken from paper PMC5652073 (ACS chemical biology, 2017).
Entries after “also recorded” stand apart in the source; their conditions may differ. Read-outs that look alike come from different tables or passages of the source. Each block holds one compound with its values, some of them ahead of it.

How the values were obtained:
[1] = tested on: PDGFR; conditions: read-out: inhibition of PDGFR, cell-free assay; cited from earlier work
[2] = tested on: VEGFR; conditions: read-out: inhibition of VEGFR, cell-free assay; cited from earlier work
[3] = tested on: c-KIT; conditions: read-out: inhibition of c-KIT, cell-free assay; cited from earlier work
[4] = target: MEK5 (Homo sapiens, UniProt Q13163); test: ADP-Glo biochemical kinase assay, MEK5; conditions: functional profiling assay
MEK5, sequence (Q13163 whole entry): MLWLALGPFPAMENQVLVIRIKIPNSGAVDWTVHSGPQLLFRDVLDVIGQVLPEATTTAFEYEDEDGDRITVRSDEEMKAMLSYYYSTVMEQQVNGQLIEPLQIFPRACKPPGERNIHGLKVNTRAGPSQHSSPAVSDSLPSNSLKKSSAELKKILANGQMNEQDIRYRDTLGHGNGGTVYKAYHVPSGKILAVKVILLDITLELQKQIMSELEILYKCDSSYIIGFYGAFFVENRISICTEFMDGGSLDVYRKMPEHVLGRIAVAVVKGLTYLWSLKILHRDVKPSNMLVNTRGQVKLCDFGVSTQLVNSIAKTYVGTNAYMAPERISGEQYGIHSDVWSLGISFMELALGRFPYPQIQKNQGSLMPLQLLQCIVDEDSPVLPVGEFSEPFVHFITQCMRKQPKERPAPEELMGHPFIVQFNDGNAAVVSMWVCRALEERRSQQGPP

[5] = target: T1, MEK7 (Homo sapiens, UniProt O14733); test: ADP-Glo biochemical kinase assay, MEK7; conditions: functional profiling assay
T1 sequence (O14733 1-419): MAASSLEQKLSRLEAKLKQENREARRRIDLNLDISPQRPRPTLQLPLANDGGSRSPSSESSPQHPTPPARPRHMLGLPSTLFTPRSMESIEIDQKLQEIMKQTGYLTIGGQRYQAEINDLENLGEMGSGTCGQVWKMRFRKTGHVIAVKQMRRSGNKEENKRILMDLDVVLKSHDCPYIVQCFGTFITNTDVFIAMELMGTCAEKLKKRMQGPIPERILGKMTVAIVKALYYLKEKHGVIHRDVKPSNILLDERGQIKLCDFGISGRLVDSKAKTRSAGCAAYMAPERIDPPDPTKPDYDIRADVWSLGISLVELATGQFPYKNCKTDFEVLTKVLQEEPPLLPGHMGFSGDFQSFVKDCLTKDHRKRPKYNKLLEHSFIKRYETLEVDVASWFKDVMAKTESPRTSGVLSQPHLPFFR

[6] = target: T2, MEK6 (Homo sapiens, UniProt P52564); test: ADP-Glo biochemical kinase assay, MEK6
T2 sequence (P52564 1-334): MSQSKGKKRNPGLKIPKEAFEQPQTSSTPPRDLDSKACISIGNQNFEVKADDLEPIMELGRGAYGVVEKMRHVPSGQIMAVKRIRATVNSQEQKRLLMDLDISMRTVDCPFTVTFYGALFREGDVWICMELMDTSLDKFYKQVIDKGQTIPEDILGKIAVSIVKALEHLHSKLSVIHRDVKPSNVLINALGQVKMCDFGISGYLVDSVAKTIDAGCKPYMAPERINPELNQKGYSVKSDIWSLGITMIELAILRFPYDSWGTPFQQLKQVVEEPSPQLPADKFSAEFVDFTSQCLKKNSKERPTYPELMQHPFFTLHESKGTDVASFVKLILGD

[7] = target: T3, MEK4 (Homo sapiens, UniProt P45985); test: ADP-Glo biochemical kinase assay, MEK4; conditions: read-out: IC50 against MEK4, ATP below Km
T3 sequence (P45985 1-399): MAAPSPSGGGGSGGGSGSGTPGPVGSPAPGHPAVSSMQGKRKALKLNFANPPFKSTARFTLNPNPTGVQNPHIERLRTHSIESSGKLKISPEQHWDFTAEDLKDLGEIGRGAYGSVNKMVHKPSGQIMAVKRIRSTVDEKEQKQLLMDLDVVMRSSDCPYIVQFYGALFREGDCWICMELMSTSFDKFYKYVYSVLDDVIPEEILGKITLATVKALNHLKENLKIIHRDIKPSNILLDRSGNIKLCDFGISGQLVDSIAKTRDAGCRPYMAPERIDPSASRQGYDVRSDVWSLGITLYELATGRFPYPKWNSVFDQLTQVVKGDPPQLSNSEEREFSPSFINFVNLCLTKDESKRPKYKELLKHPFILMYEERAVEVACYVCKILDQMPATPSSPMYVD

inhibition of MEK5 (in words) [4]: strongly inhibited
Compound: CCN1CCN(Cc2ccc(NC(=O)Nc3ccc(Oc4cc(NC)ncn4)cc3)cc2C(F)(F)F)CC1 [AST-487]
inhibition of MEK7 (in words) [5]: inhibition; also recorded: strongly inhibited

IC50 [6]: 60 µM
Compound: CCCS(=O)(=O)Nc1ccc(F)c(C(=O)c2c[nH]c3ncc(Cl)cc23)c1F [PLX-4720]

Second part, the compound before the results:

Compound: 5-[[4-[(2, 3-Dimethyl-2 H-indazol-6-yl) methylamino]-2-pyrimidinyl] amino]-2-methyl-benzene-sulfonamide [Pazopanib]
IC50 [1]: 0.084 µM
IC50 [2]: 0.01 to 0.047 µM
IC50 [3]: 0.14 µM

Compound: CN(C)C[C@@H]1CCn2cc(c3ccccc32)C2=C(C(=O)NC2=O)c2cn(c3ccccc23)CCO1 [LY-333531]
inhibition of MEK7 (in words) [5]: inhibition

Compound: O=C(c1c(F)cccc1F)c1c[nH]c2ncc(Cl)cc12 [compound 3a]
IC50 ([6]; read-out: IC50 against MEK6, ADP-Glo, ATP below Km): 75.1 µM
IC50 [7]: 6.9 µM
